The nature of assay [1]: Endurance running test. As to conditions: aged mice, NR diet. Format: in vivo, C57BL/6J mice. As for the experimental part:
Endurance running test. Mice were fasted 2 hours before running on a treadmill. The exercise regimen commenced at a speed of 9 cm/s with an inclination of 5 degrees. […] Mice were considered to be exhausted, and removed from the treadmill, following the accumulation of 5 or more shocks (0.1 mA) per minute for two consecutive minutes. The distance traveled and time before exhaustion is registered as maximal running distance and period.

In assay [2] the test system is MuSCs. The experiment in a line: Myogenesis (colony formation) assay. Format: cell-based, C57BL/6J mice. As to conditions: MuSCs isolated from NR-treated aged mice. The procedure: Myogenesis assay. Five MuSCs were sorted directly into wells of a Matrigel-coated 96-well cell culture plate, containing MuSC growth medium (F10, 20% FBS, 2.5 ng/ml bFGF, 1×pen/strep), using the automated cell deposition unit (ACDU) of the FACSAria II instrument (BD Biosciences). Cells were cultured at 37° C. for 5 days. Cell colony formations were counted using the DM IL LED Inverted Microscope (Leica) after fixation in freshly made or defrosted 4% paraformaldehyde (PFA) for 10 min.

The subject of assay [3] is muscle. The experiment in a line: Cardiotoxin-induced muscle damage in NR-treated Mdx mice. Format: in vivo. As for the experimental part:
(§1) Cardiotoxin-induced muscle damage. Animals were anesthetized using Isoflurane in oxygen from a precision vaporizer. 50 μl of 20 μM Naje mossambica mossambica cardiotoxin (Sigma) was injected intramuscularly cross the skin and directly into the tibialis anterior (TA) muscle. Mice were sacrificed at 7 and 14 days after injury. TA muscles were immediately embedded in Thermo Scientific™ Shandon™ Cryomatrix™ and frozen in isopentane, cooled in liquid nitrogen, for 2 mins before being transferred to dry ice and stored at −80° C.
(§2) Histology. TA muscles were harvested from anaesthetized mice and immediately frozen in Tissue-TEK® OCT compound (PST). 8-μm cryosections were collected and fixed with 4% paraformaldehyde, which are either stained with haematoxylin/eosin (HE) or antibodies. For immunostainings, heat activated antigen retrieval was performed in pH 6.0 citrate buffer for 10 min at 65° C. After washing with PBS-0.1% tween 20 (PBST), the sections were blocked with 10% affinipure Fab goat anti mouse IgG (Jackson Immunoresearch) in PBST for 60 min and PBST containing 2% BSA and 5% goat serum for 30 min at room temperature. Primary antibodies were then applied over night at 4° C. The following antibodies were used: anti-eMHC (Developmental Studies Hybridoma Bank, DSHB, University of Iowa), anti-Pax7 (DSHB, University of Iowa), anti-Laminin (Sigma). […]

The test system of assay [4] is MuSCs. Kind of assay: MuSCs transplantation from NR-treated aged donors into Mdx mice. Format: in vivo. To be noted: MuSCs from NR-treated aged donors vs controls, Mdx recipients, 4 weeks. As for the experimental part: MuSCs transplantation. 5,000-8,000 double-sorted MuSCs isolated from NR or normal chow diet C57B/6J mice were resuspended in 10 μl of F10 media with 20% FBS and injected directly into cardiotoxin (CTX) pre-injured tibialis anterior (TA) muscle of Mdx mice 24hrs after the injury. The CTX pre-injury was performed as described above. Recipient mice were sacrificed 4 weeks after transplantation, TA muscle were harvested and prepared for cryosection.
as §2, with “(Sigma). Subsequently, the slides were washed in PBST and incubated with appropriate secondary antibodies and labeling dyes.” for “(Sigma).”

Assay [5] has as its system MuSCs. Kind of assay: MuSC autofluorescence (405/450) as measure of relative NAD(P)H, cellular redox ratio. To be noted: MuSCs isolated from NR-treated Mdx mice, FIG. 6G-I. Format: cell-based. As for the experimental part:
Determining cellular redox ratio. NAD+ and NADH quantification and ratio were measured using a kit from Biovision (Milpitas, Calif.), following providers' instructions. With continuous muscle regeneration, MuSCs in Mdx mice are abnormally active at a young age, leading to MuSC depletion and dysfunction later in life. […] Thus the self-renewal capacity of Mdx mouse MuSCs was tested. The cellular redox ratio decreases as MuSCs differentiate (Fulco et al., 2003, Molecular Cell, 12: 51), which can be detected by the increase in 405/450 autofluorescence (Quinn et al., 2013, Scientific Reports, 3: 3432). […] We then performed β-galactosidase staining on primary MuSCs isolated from Mdx mice, with or without NR treatment, and cultured these cells with NR or vehicle in vitro. […] The prevention of MuSCs senescence in NR-treated Mdx mice was confirmed by the attenuation of γH2AX and cleaved caspase-3 immunostaining (FIG. 6K). To evaluate MuSC function, CTX-induced muscle regeneration was examined in NR-treated mice.

Assay [6] has as its system tibialis anterior (TA) muscle. The experiment in a line: Cardiotoxin-induced muscle damage, regeneration of TA muscle. To be noted: for PAX7-positive MuSCs after CTX-induced damage: 7 days after CTX. Format: in vivo, C57BL/6J mice. The procedure:
as §1
Histology. TA muscles were harvested from anaesthetized mice and immediately frozen in Tissue-TEK® OCT compound (PST). 8-μm cryosections were collected and fixed with 4% paraformaldehyde, which are either stained with haematoxylin/eosin (HE) or antibodies. For immunostainings, heat activated antigen retrieval was performed in pH 6.0 citrate buffer for 10 min at 65° C. After washing with PBS-0.1% tween 20 (PBST), the sections were blocked with 10% affinipure Fab goat anti mouse IgG (Jackson Immunoresearch) in PBST for 60 min and PBST containing 2% BSA and 5% goat serum for 30 min at room temperature. Primary antibodies were then applied over night at 4° C. The following antibodies were used: anti-eMHC (Developmental Studies Hybridoma Bank, DSHB, University of Iowa), anti-Pax7 (DSHB, University of Iowa), anti-Laminin (Sigma). Subsequently, the slides were washed in PBST and incubated with appropriate secondary antibodies and labeling dyes. For immunofluorescence, secondary antibodies were coupled to Alexa-488 or Alexa-568 fluorochromes (Life technology), and nuclei were stained with DAPI (Invitrogen). After washing in PBST, tissue sections were mounted with Dako mounting medium (Dako).

Assay [7] has as its system C2C12 myoblasts. The experiment in a line: Respirometry on C2C12 myoblasts (OCR, ECAR). Format: cell-based, mouse. To be noted: C2C12 cells, NR vs PBS for 6 hours, FIG. 4J. As for the experimental part:
Cell culture and treatments were prepared according to description of Example 3. C2C12 mouse myoblasts were grown in DMEM (4.5 g/1 glucose, Gibco) supplemented with 10% FBS and penicillin/streptomycin (1×, Gibco). Cell transformation with Phb (Santa Cruz) and Phb2 shRNA (Santa Cruz) were performed using jetPEI DNA transfection kit (Polyplus), according to manufacturer's instructions. Cells were treated with 1 mM NR or PBS for 6 hours before cell harvesting or fixation. Respirometry on C2C12 myoblasts. Basal and uncoupled oxygen consumption rates (OCRs) and the extracellular acidification rate (ECAR) was measured using the Seahorse extracellular flux bioanalyzer (XF96, Seahorse Bioscience Inc.). To uncouple mitochondria, 5 uM of FCCP was injected after a basal respiration measurement. All measurements were performed in triplicates and results were normalized to total protein amount (C2C12 cells), assessed using a Bradford kit (Bio-Rad).

Molecules are shown by their SMILES.

The record followed here is patent US10905704B2, “Agents and methods using thereof for the prevention and treatment of stem cell muscle disorders” (ECOLE POLYTECHNIQUE FEDERALE DE LAUSANNE (EPFL), priority 2015, dated 2021).

Take `NC(=O)c1ccc[n+]([C@@H]2O[C@H](CO)[C@@H](O)[C@H]2O)c1` [NR, nicotinamide riboside]: the maximal running distances result in assay [1] (FIG. 3E) was “improvements”. Further, the maximal running times result in assay [1] (FIG. 3F) was “improvements”. The “myogenic colony formation (proliferation ability)” value in assay [2] was “enhanced potential to form myogenic colonies”. The “regenerated muscle fibers (eMyHC)” value in assay [3] (7 days after CTX, FIG. 6F) is “increase in regenerated muscle fibers”. In addition, in assay [3] (7 days of recovery, FIG. 6L), the “CTX-induced muscle regeneration (H/E)” value is recorded as “muscle regeneration was improved”. Further, the “replenishment of MuSC compartment after transplantation” value in assay [4] is recorded as “more effectively replenished the MuSC compartment”. In addition, the “myogenesis of dystrophin-positive myofibers after transplantation” value in assay [4] (FIG. 3N) is given as “stimulated myogenesis of dystrophin-positive myo fibers”. Further, in assay [5], the “405/450 autofluorescence of MuSCs” value is recorded as “significant reduction in autofluorescence”. Besides, in assay [6] (aged mice, 7 and 14 days of regeneration, FIG. 3H), the “muscle regeneration after CTX-induced muscle damage (H/E)” value is reported as “accelerated muscle regeneration”. Also, the “PAX7-positive MuSCs after CTX-induced damage” value in assay [6] (aged mice, FIG. 3I-J) was “increases in PAX7-positive MuSCs”. In addition, the “embryonic myosin heavy chain (eMyHC) staining, newly regenerated fibers” value in assay [6] (aged mice, 7 days after CTX-induced damage, FIG. 3L) was “improvements in embryonic myosin heavy chain staining”. Moreover, in assay [6] (aged mice, 7 days after muscle damage, FIG. 3K), the “MYOD1-positive PAX7 immunostained cells (stemness)” value is “reduction in MYOD1-positive PAX7 immunostained cells”. Also, in assay [6] (young mice), the “muscle regeneration after CTX-induced muscle damage” value is given as “accelerated muscle regeneration” and the “PAX7-positive MuSCs after CTX-induced damage” value is given as “trend to increase”. For the same compound, in assay [7], the “glycolysis (ECAR)” value is recorded as “reductions in glycolysis” and the “oxidative respiration (OCR)” value is listed as “increases in oxidative respiration”.
